Test results taken from patent US11542273B2, “Amide compound having bet proteolysis-inducing action and medicinal application thereof” (MITSUBISHI TANABE PHARMA CORPORATION, priority 2018, dated 2023).

Key:
[1] = system: human prostate cancer LNCaP cells; test: Cytotoxic action on cancer cells (WST-8, 96 hr); assay type: cell-based; conditions: Homo sapiens, LNCaP, 96 h, read-out: LNCaP cytotoxic activity: IC50
Summary of the method: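 IC50 from linear interpolation of the two concentrations flanking 50% survival; viability by WST-8 relative to untreated wells. Cells grown in 10% FBS/RPMI1640, 37° C, 5% CO2, compound added after overnight attachment.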

BRD4 protein = BRD4 protein (Homo sapiens (Human), UniProt O60885); test: BRD4 protein degradation inducing action in cancer cells (immunofluorescence, Operetta); assay type: cell-based; conditions: LNCaP cells, 6 hr treatment, fluorescence intensity
Summary of the method: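 DC50 = compound concentration reducing BRD4 immunofluorescence to 50% of untreated cells, interpolated between the two flanking concentrations. Treatment: LNCaP cells, 6 hr, 10% FBS/RPMI1640, 37° C. Cells were then fixed, permeabilized, stained with anti-BRD4 and Alexa Fluor 488 or 546 secondaries, and imaged.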

| SMILES | IC50 [1] | DC50 (BRD4 protein) |
| --- | --- | --- |
| COC(=O)C[C@@H]1N=C(c2ccc(-c3ccc4oc(C(=O)N[C@H](C(=O)N5C[C@H](O)C[C@H]5C(=O)NCc5ccc(-c6scnc6C)cc5)C(C)(C)C)nc4c3)cc2)c2c(sc(C)c2C)-n2c(C)nnc21 [Example 171, methyl [(6S)-4-{4-[2-({(2S)-1-[(2S,4R)-4-hydroxy-2-({[4-(4-methyl-1,3-thiazol-5-yl)phenyl]methyl}carbamoyl)pyrrolidin-1-yl]-3,3-dimethyl-1-oxobutan-2-yl}carbamoyl)-1,3-benzoxazol-5-yl]phenyl}-2,3,9-trimethyl-6H-thieno[3,2-f][1,2,4]triazolo[4,3-a][1,4]diazepin-6-yl]acetate] | 0.08 nM | 0.16 nM |
| COC(=O)C[C@@H]1N=C(c2ccc(-n3ccc(C(=O)N[C@H](C(=O)N4C[C@H](O)C[C@H]4C(=O)N[C@@H](C)c4ccc(-c5scnc5C)cc4)C(C)(C)C)n3)cc2)c2c(sc(C)c2C)-n2c(C)nnc21 [Example 172, methyl [(6S)-4-{4-[3-({(2S)-1-[(2S,4R)-4-hydroxy-2-({(1S)-1-[4-(4-methyl-1,3-thiazol-5-yl)phenyl]ethyl}carbamoyl)pyrrolidin-1-yl]-3,3-dimethyl-1-oxobutan-2-yl}carbamoyl)-1H-pyrazol-1-yl]phenyl}-2,3,9-trimethyl-6H-thieno[3,2-f][1,2,4]triazolo[4,3-a][1,4]diazepin-6-yl]acetate] | 0.36 nM | 0.37 nM |
| COC(=O)C[C@@H]1N=C(c2ccc(-c3cc(C(=O)N[C@H](C(=O)N4C[C@H](O)C[C@H]4C(=O)N[C@@H](C)c4ccc(-c5scnc5C)cc4)C(C)(C)C)cc(F)c3F)cc2)c2c(sc(C)c2C)-n2c(C)nnc21 [Example 173, methyl {(6S)-4-[2′,3′-difluoro-5′-({(2S)-1-[(2S,4R)-4-hydroxy-2-({(1S)-1-[4-(4-methyl-1,3-thiazol-5-yl)phenyl]ethyl}carbamoyl)pyrrolidin-1-yl]-3,3-dimethyl-1-oxobutan-2-yl}carbamoyl)[1,1′-biphenyl]-4-yl]-2,3,9-trimethyl-6H-thieno[3,2-f][1,2,4]triazolo[4,3-a][1,4]diazepin-6-yl}acetate] | 0.53 nM | 0.53 nM |
| COC(=O)C[C@@H]1N=C(c2ccc(-c3c(F)ccc(C(=O)N[C@H](C(=O)N4C[C@H](O)C[C@H]4C(=O)N[C@@H](C)c4ccc(-c5scnc5C)cc4)C(C)(C)C)c3F)cc2)c2c(sc(C)c2C)-n2c(C)nnc21 [Example 174, methyl {(6S)-4-[2′,6′-difluoro-3′-({(2S)-1-[(2S,4R)-4-hydroxy-2-({(1S)-1-[4-(4-methyl-1,3-thiazol-5-yl)phenyl]ethyl}carbamoyl)pyrrolidin-1-yl]-3,3-dimethyl-1-oxobutan-2-yl}carbamoyl)[1,1′-biphenyl]-4-yl]-2,3,9-trimethyl-6H-thieno[3,2-f][1,2,4]triazolo[4,3-a][1,4]diazepin-6-yl}acetate] | 0.37 nM | 0.31 nM |
| COC(=O)C[C@@H]1N=C(c2ccc(-c3cc(F)cc(C(=O)N[C@H](C(=O)N4C[C@H](O)C[C@H]4C(=O)N[C@@H](C)c4ccc(-c5scnc5C)cc4)C(C)(C)C)c3F)cc2)c2c(sc(C)c2C)-n2c(C)nnc21 [Example 175, methyl {(6S)-4-[2′,5′-difluoro-3′-({(25)-1-[(2S,4R)-4-hydroxy-2-({(1S)-1-[4-(4-methyl-1,3-thiazol-5-yl)phenyl]ethyl}carbamoyl)pyrrolidin-1-yl]-3,3-dimethyl-1-oxobutan-2-yl}carbamoyl)[1,1′-biphenyl]-4-yl]-2,3,9-trimethyl-6H-thieno[3,2-f][1,2,4]triazolo[4,3-a][1,4]diazepin-6-yl}acetate] | 0.3 nM | 0.5 nM |
| COC(=O)C[C@@H]1N=C(c2ccc(-c3ccc(C(=O)N[C@H](C(=O)N4C[C@H](O)C[C@H]4C(=O)N[C@@H](C)c4ccc(-c5scnc5C)cc4)C(C)(C)C)c(F)c3F)cc2)c2c(sc(C)c2C)-n2c(C)nnc21 [Example 176, methyl {(6S)-4-[2′,3′-difluoro-4′-({(2S)-1-[(2S,4R)-4-hydroxy-2-({(1S)-1-[4-(4-methyl-1,3-thiazol-5-yl)phenyl]ethyl}carbamoyl)pyrrolidin-1-yl]-3,3-dimethyl-1-oxobutan-2-yl}carbamoyl)[1,1′-biphenyl]-4-yl]-2,3,9-trimethyl-6H-thieno[3,2-f][1,2,4]triazolo[4,3-a][1,4]diazepin-6-yl}acetate] | 0.39 nM | 0.44 nM |
| COC(=O)C[C@@H]1N=C(c2ccc(N3CCN(c4cccc(C(=O)N[C@H](C(=O)N5C[C@H](O)C[C@H]5C(=O)N[C@@H](C)c5ccc(-c6scnc6C)cc5)C(C)(C)C)n4)CC3)cc2)c2c(sc(C)c2C)-n2c(C)nnc21 [Example 177, methyl [(6S)-4-(4-{4-[6-({(2S)-1-[(2S,4R)-4-hydroxy-2-({(1S)-1-[4-(4-methyl-1,3-thiazol-5-yl)phenyl]ethyl}carbamoyl)pyrrolidin-1-yl]-3,3-dimethyl-1-oxobutan-2-yl}carbamoyl)pyridin-2-yl]piperazin-1-yl}phenyl)-2,3,9-trimethyl-6H-thieno[3,2-f][1,2,4]triazolo[4,3-a] [1,4]diazepin-6-yl]acetate] | 0.36 nM | 0.23 nM |
| COC(=O)C[C@@H]1N=C(c2ccc(-c3ccccc3OCC(=O)N[C@H](C(=O)N3C[C@H](O)C[C@H]3C(=O)N[C@@H](C)c3ccc(-c4scnc4C)cc3)C(C)(C)C)cc2)c2c(sc(C)c2C)-n2c(C)nnc21 [Example 178, methyl [(6S)-4-{2′-[2-({(2S)-1-[(2S,4R)-4-hydroxy-2-({(1S)-1-[4-(4-methyl-1,3-thiazol-5-yl)phenyl]ethyl}carbamoyl)pyrrolidin-1-yl]-3,3-dimethyl-1-oxobutan-2-yl}amino)-2-oxoethoxy][1,1′-biphenyl]-4-yl}-2,3,9-trimethyl-6H-thieno[3,2-f][1,2,4]triazolo[4,3-a][1,4]diazepin-6-yl]acetate] | 0.68 nM | 0.8 nM |
| COC(=O)C[C@@H]1N=C(c2ccc(-c3ccc4sc(C(=O)N[C@H](C(=O)N5C[C@H](O)C[C@H]5C(=O)N[C@@H](C)c5ccc(-c6scnc6C)cc5)C(C)(C)C)nc4c3)cc2)c2c(sc(C)c2C)-n2c(C)nnc21 [Example 179, methyl [(6S)-4-{4-[2-({(2S)-1-[(2S,4R)-4-hydroxy-2-({(1S)-1-[4-(4-methyl-1,3-thiazol-5-yl)phenyl]ethyl}carbamoyl)pyrrolidin-1-yl]-3,3-dimethyl-1-oxobutan-2-yl}carbamoyl)-1,3-benzothiazol-5-yl]phenyl}-2,3,9-trimethyl-6H-thieno[3,2-f][1,2,4]triazolo[4,3-a][1,4]diazepin-6-yl]acetate] | 0.21 nM | 0.11 nM |
| COC(=O)C[C@@H]1N=C(c2ccc(-c3ccc4nc(C(=O)N[C@H](C(=O)N5C[C@H](O)C[C@H]5C(=O)N[C@@H](C)c5ccc(-c6scnc6C)cc5)C(C)(C)C)oc4c3)cc2)c2c(sc(C)c2C)-n2c(C)nnc21 [Example 181, methyl [(6S)-4-{4-[2-({(2S)-1-[(2S,4R)-4-hydroxy-2-({(1S)-1-[4-(4-methyl-1,3-thiazol-5-yl)phenyl]ethyl}carbamoyl)pyrrolidin-1-yl]-3,3-dimethyl-1-oxobutan-2-yl}carbamoyl)-1,3-benzoxazol-6-yl]phenyl}-2,3,9-trimethyl-6H-thieno[3,2-f][1,2,4]triazolo[4,3-a][1,4]diazepin-6-yl]acetate] | 0.037 nM | 0.031 nM |
| COC(=O)C[C@@H]1N=C(c2ccc(-c3ccc(C(=O)N[C@H](C(=O)N4C[C@H](O)C[C@H]4C(=O)N[C@@H](C)c4ccc(-c5scnc5C)cc4)C(C)(C)C)c(C)c3)cc2)c2c(sc(C)c2C)-n2c(C)nnc21 [Example 183, methyl {(6S)-4-[4′-({(2S)-1-[(2S,4R)-4-hydroxy-2-({(1S)-1-[4-(4-methyl-1,3-thiazol-5-yl)phenyl]ethyl}carbamoyl)pyrrolidin-1-yl]-3,3-dimethyl-1-oxobutan-2-yl}carbamoyl)-3′-methyl[1,1′-biphenyl]-4-yl]-2,3,9-trimethyl-6H-thieno[3,2-f][1,2,4]triazolo[4,3-a][1,4]diazepin-6-yl}acetate] | 1.5 nM | 0.93 nM |
| COC(=O)C[C@@H]1N=C(c2ccc(-c3ccc(CCC(=O)N[C@H](C(=O)N4C[C@H](O)C[C@H]4C(=O)N[C@@H](C)c4ccc(-c5scnc5C)cc4)C(C)(C)C)s3)cc2)c2c(sc(C)c2C)-n2c(C)nnc21 [Example 188, methyl [(6S)-4-(4-{5-[3-({(2S)-1-[(2S,4R)-4-hydroxy-2-({(1S)-1-[4-(4-methyl-1,3-thiazol-5-yl)phenyl]ethyl}carbamoyl)pyrrolidin-1-yl]-3,3-dimethyl-1-oxobutan-2-yl}amino)-3-oxopropyl]thiophen-2-yl}phenyl)-2,3,9-trimethyl-6H-thieno[3,2-f][1,2,4]triazolo[4,3-a][1,4]diazepin-6-yl]acetate] | 0.042 nM | 0.26 nM |
| COC(=O)C[C@@H]1N=C(c2ccc(-c3ccc(C(=O)N[C@H](C(=O)N4C[C@H](O)C[C@H]4C(=O)NCc4ccc(-c5scnc5C)cc4)C(C)(C)C)cc3F)cc2)c2c(sc(C)c2C)-n2c(C)nnc21 [Example 189, methyl {(6S)-4-[2′-fluoro-4′-({(2S)-1-[(2S,4R)-4-hydroxy-2-({[4-(4-methyl-1,3-thiazol-5-yl)phenyl]methyl}carbamoyl)pyrrolidin-1-yl]-3,3-dimethyl-1-oxobutan-2-yl}carbamoyl) [1,1′-biphenyl]-4-yl]-2,3,9-trimethyl-6H-thieno [3,2-f][1,2,4]triazolo [4,3-a][1,4]diazepin-6-yl}acetate] | 0.17 nM | 0.44 nM |
